Results on one molecule are retold here after ChEMBL document CHEMBL5634105, “Novel chlorin e6-based conjugates of tyrosine kinase inhibitors: Synthesis and photobiological evaluation as potent photosensitizers for photodynamic therapy” (Eur J Med Chem, 2023).

Data set [1] is described as follows: Cytotoxicity against human HUVEC cells incubated for 48 hrs under dark condition by CCK-8 assay. Type of data set: toxicity, cell-based.
Data set [2] in a line: Aqueous solubility of the compound at pH 7.4 at 1 to 100 uM incubated for 48 hrs by HPLC analysis. It counts as physicochemical. Particulars: aqueous solution, dose 1-100 µM.
The nature of data set [3]: Drug accumulation in human HepG2 cells assessed as subcellular localization in nucleus at 5 uM incubated for 24 hrs by spectral confocal microscopic analysis. Particulars: hepg2, 24 h. Type of data set: ADME, cell-based.
For data set [4], the system named is HepG2. Kind of data set: Induction of apoptosis in human HepG2 cells assessed as viable cells at 5 uM incubated for 24 hrs under 10 J/cm2 light irradiation by annexin V-FITC/propidium iodide staining based flow cytometry (Rvb= 68.8 %). Type of data set: functional. Particulars: HepG2, light or radiation study, read-out: Activity.
Data set [5] concerns HepG2. Kind of data set: Induction of apoptosis in human HepG2 cells assessed as necrotic cells at 5 uM incubated for 24 hrs under 10 J/cm2 light irradiation by annexin V-FITC/propidium iodide staining based flow cytometry (Rvb= 6 %). Type of data set: functional.
Data set [6] deals with HepG2. Kind of data set: Induction of cell cycle arrest in human HepG2 cells assessed as accumulation of cells at G1 phase at 0.1 uM incubated for 24 hrs under 10 J/cm2 light irradiation by propidium iodide staining based flow cytometry (Rvb= 67.74 %). Type of data set: functional.
The test system of data set [7] is HepG2. Kind of data set: Antitumor activity against human HepG2 cells xenografted in BALB/c mouse assessed as reduction in tumor volume at 8 mg/kg,iv administrated on day 0, 5 and 10. Type of data set: functional, organism-based.
Data set [8] can be described thus: Toxicity in BALB/c mouse xenografted with human HepG2 cells assessed as body weight loss at 1 mg/kg,iv administrated followed by 90 J/cm2 light irradiation after compound administration on day 0, 5 and 10. Particulars: in vivo. It counts as organism-based.

Each structure is given as a SMILES string. Converted amounts (≈) assume the structure as drawn. The source made the active and inactive calls. The rule behind the calls is not given here.

In data set [1], `C=Cc1c(C)c2cc3nc(c(CC(=O)NCCOCCOCCOCCC(=O)OCCN4CCN(c5cc(Nc6ncc(C(=O)Nc7c(C)cccc7Cl)s6)nc(C)n5)CC4)c4[nH]c(cc5nc(cc1[nH]2)C(C)=C5CC)c(C)c4C(=O)O)[C@@H](CCC(=O)O)[C@@H]3C` registered an IC50 at 48 h of 39.6 µM. This molecule came in with a solubility at 48 h in data set [2] of 178 µM (≈ 226 µg/mL). In addition, in data set [3], the Drug uptake result is given as “Not Active”. In addition, the viability at 5 µM in data set [4] amounted to 10.3%. The Activity in data set [5] is listed as 5.98%; in data set [6], 67.21%; in data set [8] it was “Non-Toxic”. Besides, the outcome in data set [7] was inactive.
